According to ChEMBL document CHEMBL2069279, “Target fishing and docking studies of the novel derivatives of aryl-aminopyridines with potential anticancer activity” (Bioorg Med Chem, 2012):

Experiments:
HeLa = assay: Cytotoxicity against human HeLa cells after 72 hrs by MTT assay; format: functional, cell-based
PBMC [1] = assay: Cytotoxicity against human PBMC cells in presence of phytohemagglutinin after 72 hrs by MTT assay; format: cell-based
K562 = assay: Cytotoxicity against human K562 cells after 72 hrs by MTT assay; format: functional, cell-based; details: K562, 72 h
PBMC [2] = assay: Cytotoxicity against human PBMC cells in absence of phytohemagglutinin after 72 hrs by MTT assay; format: cell-based
[3] = Cytotoxicity against human Fem-X cells after 72 hrs by MTT assay; format: functional, cell-based
[4] = Homo sapiens, HeLa, 72 h, read-out: IC50

Compound | IC50 (HeLa; [4]) | IC50 (PBMC [1]) | IC50 (K562) | IC50 (PBMC [2]) | IC50 [3] | IC50 (HeLa; hela)
Cc1ccc(-c2ccnc(Nc3ccc(F)cc3)c2)cc1 | 146 µM | 146 µM | 54 µM | 127 µM | 79 µM | –
COc1cccc(Nc2nc3ccccc3cc2-c2ccccc2)c1 | – | 81 µM | 76 µM | 119 µM | 129 µM | ND(toxic)
COc1cccc(Nc2cc(-c3cccc(C(F)(F)F)c3)ccn2)c1 | > 200 µM | – | – | – | > 200 µM | –
COc1ccc(Nc2cc(-c3cccc(C(F)(F)F)c3)ccn2)cc1 | 140 µM | 105 µM | 78 µM | 132 µM | 68 µM | –
COc1ccc(Nc2ccc3ccccc3n2)cc1 | 51 µM | 70 µM | 30 µM | 91 µM | 43 µM | –
COc1ccc(Nc2ccccn2)cc1 | 117 µM | 42 µM | 63 µM | 46 µM | 123 µM | –
COc1ccc(Nc2c(-c3ccc(OC)cc3)cnc3ccccc23)cc1 | 104 µM | 105 µM | 25 µM | 122 µM | 56 µM | –
Fc1ccc(Nc2ccc3ccccc3n2)cc1 | 33 µM | 65 µM | 36 µM | 90 µM | 35 µM | –
COc1ccc(Nc2c(-c3ccccc3)cnc3ccccc23)cc1 | 64 µM | 62 µM | 25 µM | 72 µM | 35 µM | –
COc1ccc(Nc2cccnc2)cc1 | 145 µM | 183 µM | 68 µM | 96 µM | 118 µM | –
CCc1ccc(Nc2cc(-c3cccc(C(F)(F)F)c3)ccn2)cc1 | > 200 µM | – | – | – | > 200 µM | –
COc1ccc(Nc2cc(-c3ccc(C)cc3)ccn2)cc1 | 43 µM | 34 µM | 19 µM | 52 µM | 33 µM | –
CCc1ccc(Nc2nc3ccccc3cc2-c2ccccc2)cc1 | 140 µM | 66 µM | 99 µM | 73 µM | 92 µM | –
COc1ccc(Nc2nc3ccccc3cc2-c2ccc(C)cc2)cc1 | 102 µM | 118 µM | 75 µM | 137 µM | 65 µM | –
